Values of other authors, collected in patent publication US20030044472A1, “METHOD AND SYNERGISTIC COMPOSITION FOR TREATING ATTENTION DEFICIT/HYPERACTIVITY DISORDER” (DexGen-Intellectual Property, Homocysteine, Inc., priority 2001, published 2003).
Structures can show the parent of a compound that is named as a salt.

How the values were obtained:
ADHD children [1] = details: double blind clinical study
ADHD children [2] = details: supplements at 6 mg/lb. of the child

Row | SMILES | test score improvements vs. placebo (ADHD children [1]) | hyperactivity (ADHD children [2])
1 | COC(=O)C(c1ccccc1)C1CCCCN1 (centres unmarked) [Ritalin, methylphenidate hydrochloride] | significant test score improvements | 
2 | [Mg+2] [magnesium] |  | a decrease in hyperactivity
